This is an account of results in patent US20120121591A1 (priority 2009, published 2012).

One assay deals with IFN-g secretion from T cells in human whole blood. In kind it is cell-based. The note with it: read-out: WB (IFNg) IC5- (nM, Avg).
With `CC[C@H](C)[C@@H]1NC(=O)[C@@H](NC(=O)[C@H](CO)NC(=O)[C@@H](N)CCCNC(=N)N)CSSC[C@@H](C(=O)O)NC(=O)[C@H]([C@@H](C)O)NC(=O)CNC(=O)[C@@H]2CSSC[C@@H]3NC(=O)[C@H](CCC(N)=O)NC(=O)[C@H](Cc4ccccc4)NC(=O)[C@H](C)NC(=O)[C@H]([C@@H](C)O)NC(=O)[C@H](CSSC[C@H](NC(=O)[C@H](Cc4ccccc4)NC(=O)[C@H](CO)NC(=O)[C@H](CC(C)C)NC(=O)[C@H](CCCNC(=N)N)NC(=O)[C@H](Cc4ccc(O)cc4)NC(=O)[C@H](CCCCN)NC(=O)[C@H](CCSC)NC(=O)[C@H](CO)NC(=O)[C@H](CCC(=O)O)NC(=O)[C@H](CCCCN)NC3=O)C(=O)N[C@@H](CCCNC(=N)N)C(=O)N[C@@H](CCCCN)C(=O)N[C@@H]([C@@H](C)O)C(=O)N2)NC(=O)[C@H](CCCNC(=N)N)NC(=O)[C@H](CO)NC(=O)[C@H](CCCCN)NC(=O)[C@@H]2CCCN2C(=O)[C@H]([C@@H](C)CC)NC(=O)[C@H]([C@@H](C)O)NC(=O)[C@H](CC(=O)O)NC1=O` [[Glu19]ShK], the IC50 amounted to 0.215 nM.

For the compound `CC[C@H](C)[C@@H]1NC(=O)[C@@H](NC(=O)[C@H](CO)NC(=O)[C@@H](N)CCCNC(=N)N)CSSC[C@@H](C(=O)O)NC(=O)[C@H]([C@@H](C)O)NC(=O)CNC(=O)[C@@H]2CSSC[C@@H]3NC(=O)[C@H](CCC(N)=O)NC(=O)[C@H](Cc4ccccc4)NC(=O)[C@H](C)NC(=O)[C@H]([C@@H](C)O)NC(=O)[C@H](CSSC[C@H](NC(=O)[C@H](Cc4ccccc4)NC(=O)[C@H](CO)NC(=O)[C@H](CC(C)C)NC(=O)[C@H](CCCNC(=N)N)NC(=O)[C@H](Cc4ccc(O)cc4)NC(=O)[C@H](CCC(=O)O)NC(=O)[C@H](CCSC)NC(=O)[C@H](CO)NC(=O)[C@H](Cc4c[nH]cn4)NC(=O)[C@H](CCCCN)NC3=O)C(=O)N[C@@H](CCCNC(=N)N)C(=O)N[C@@H](CCCCN)C(=O)N[C@@H]([C@@H](C)O)C(=O)N2)NC(=O)[C@H](CCCNC(=N)N)NC(=O)[C@H](CO)NC(=O)[C@H](CCCCN)NC(=O)[C@@H]2CCCN2C(=O)[C@H]([C@@H](C)CC)NC(=O)[C@H]([C@@H](C)O)NC(=O)[C@H](CC(=O)O)NC1=O` [[Glu22]ShK], the IC50 stood at 100 nM. `CC[C@H](C)[C@@H]1NC(=O)[C@@H](NC(=O)[C@H](CO)NC(=O)[C@@H](N)CCCNC(=N)N)CSSC[C@@H](C(=O)O)NC(=O)[C@H]([C@@H](C)O)NC(=O)CNC(=O)[C@@H]2CSSC[C@@H]3NC(=O)[C@H](CCC(N)=O)NC(=O)[C@H](Cc4ccccc4)NC(=O)[C@H](C)NC(=O)[C@H]([C@@H](C)O)NC(=O)[C@H](CSSC[C@H](NC(=O)[C@H](Cc4ccccc4)NC(=O)[C@H](CO)NC(=O)[C@H](CC(C)C)NC(=O)[C@H](CCCNC(=N)N)NC(=O)[C@H](CCC(=O)O)NC(=O)[C@H](CCCCN)NC(=O)[C@H](CCSC)NC(=O)[C@H](CO)NC(=O)[C@H](Cc4c[nH]cn4)NC(=O)[C@H](CCCCN)NC3=O)C(=O)N[C@@H](CCCNC(=N)N)C(=O)N[C@@H](CCCCN)C(=O)N[C@@H]([C@@H](C)O)C(=O)N2)NC(=O)[C@H](CCCNC(=N)N)NC(=O)[C@H](CO)NC(=O)[C@H](CCCCN)NC(=O)[C@@H]2CCCN2C(=O)[C@H]([C@@H](C)CC)NC(=O)[C@H]([C@@H](C)O)NC(=O)[C@H](CC(=O)O)NC1=O` [[Glu23]ShK]: the IC50 came to 100 nM. The same measure, in the same setting: then `CC[C@H](C)[C@@H]1NC(=O)[C@@H](NC(=O)[C@H](CO)NC(=O)[C@@H](N)CCCNC(=N)N)CSSC[C@@H](C(=O)O)NC(=O)[C@H]([C@@H](C)O)NC(=O)CNC(=O)[C@@H]2CSSC[C@@H]3NC(=O)[C@H](CCC(N)=O)NC(=O)[C@H](Cc4ccccc4)NC(=O)[C@H](C)NC(=O)[C@H]([C@@H](C)O)NC(=O)[C@H](CSSC[C@H](NC(=O)[C@H](Cc4ccccc4)NC(=O)[C@H](CO)NC(=O)[C@H](CC(C)C)NC(=O)[C@H](CCC(=O)O)NC(=O)[C@H](Cc4ccc(O)cc4)NC(=O)[C@H](CCCCN)NC(=O)[C@H](CCSC)NC(=O)[C@H](CO)NC(=O)[C@H](Cc4c[nH]cn4)NC(=O)[C@H](CCCCN)NC3=O)C(=O)N[C@@H](CCCNC(=N)N)C(=O)N[C@@H](CCCCN)C(=O)N[C@@H]([C@@H](C)O)C(=O)N2)NC(=O)[C@H](CCCNC(=N)N)NC(=O)[C@H](CO)NC(=O)[C@H](CCCCN)NC(=O)[C@@H]2CCCN2C(=O)[C@H]([C@@H](C)CC)NC(=O)[C@H]([C@@H](C)O)NC(=O)[C@H](CC(=O)O)NC1=O` [[Glu24]ShK], with 4.07 nM.

The same assay, now with this note: read-out: WB (IFNg) IC50 (nM, Avg).
On to `CC[C@H](C)[C@@H]1NC(=O)[C@@H](NC(=O)[C@H](CO)NC(=O)[C@@H](N)CCCNC(=N)N)CSSC[C@@H](C(=O)O)NC(=O)[C@H]([C@@H](C)O)NC(=O)[C@H](Cc2cccc3ccccc23)NC(=O)[C@@H]2CSSC[C@@H]3NC(=O)[C@H](CCC(N)=O)NC(=O)[C@H](Cc4ccccc4)NC(=O)[C@H](C)NC(=O)[C@H]([C@@H](C)O)NC(=O)[C@H](CSSC[C@H](NC(=O)[C@H](Cc4ccccc4)NC(=O)[C@H](CO)NC(=O)[C@H](CC(C)C)NC(=O)[C@H](CCCNC(=N)N)NC(=O)[C@H](Cc4ccc(O)cc4)NC(=O)[C@H](CCCCN)NC(=O)[C@H](CCSC)NC(=O)[C@H](CO)NC(=O)[C@H](Cc4c[nH]cn4)NC(=O)[C@H](CCCCN)NC3=O)C(=O)N[C@@H](CCCNC(=N)N)C(=O)N[C@@H](CCCCN)C(=O)N[C@@H]([C@@H](C)O)C(=O)N2)NC(=O)[C@H](CCCNC(=N)N)NC(=O)[C@H](CO)NC(=O)[C@H](CCCCN)NC(=O)[C@@H]2CCCN2C(=O)[C@H]([C@@H](C)CC)NC(=O)[C@H]([C@@H](C)O)NC(=O)[C@H](CC(=O)O)NC1=O` [[1-Nal33]ShK], for which the IC50 is 1.43 nM. Same read-out and setting: for `CC[C@H](C)[C@@H]1NC(=O)[C@@H](NC(=O)[C@H](CO)NC(=O)[C@@H](N)CCCNC(=N)N)CSSC[C@@H](C(=O)O)NC(=O)[C@H]([C@@H](C)O)NC(=O)CNC(=O)[C@@H]2CSSC[C@@H]3NC(=O)[C@H](CCC(N)=O)NC(=O)[C@H](Cc4ccccc4)NC(=O)[C@H](C)NC(=O)[C@H]([C@@H](C)O)NC(=O)[C@H](CSSC[C@H](NC(=O)[C@H](Cc4ccccc4)NC(=O)[C@H](CO)NC(=O)[C@H](CC(C)C)NC(=O)[C@H](CCCNC(=N)N)NC(=O)[C@H](Cc4ccc(O)cc4)NC(=O)[C@H](CCCCN)NC(=O)[C@H](CCSC)NC(=O)[C@H](CO)NC(=O)[C@H](Cc4c[nH]cn4)NC(=O)[C@H](CCCCN)NC3=O)C(=O)N[C@@H](CCCNC(=N)N)C(=O)N[C@@H](CCCCN)C(=O)N[C@@H]([C@@H](C)O)C(=O)N2)NC(=O)[C@H](CCCNC(=N)N)NC(=O)[C@H](CO)NC(=O)[C@H](CCCCN)NC(=O)[C@H](CCCCN)NC(=O)[C@H]([C@@H](C)CC)NC(=O)[C@H]([C@@H](C)O)NC(=O)[C@H](CC(=O)O)NC1=O` [[Lys8]ShK] the value was 0.974 nM; for `CC[C@H](C)[C@@H]1NC(=O)[C@@H](NC(=O)[C@H](CO)NC(=O)[C@@H](N)CCCNC(=N)N)CSSC[C@@H](C(=O)O)NC(=O)[C@H]([C@@H](C)O)NC(=O)[C@H](CCCCN)NC(=O)[C@@H]2CSSC[C@@H]3NC(=O)[C@H](CCC(N)=O)NC(=O)[C@H](Cc4ccccc4)NC(=O)[C@H](C)NC(=O)[C@H]([C@@H](C)O)NC(=O)[C@H](CSSC[C@H](NC(=O)[C@H](Cc4ccccc4)NC(=O)[C@H](CO)NC(=O)[C@H](CC(C)C)NC(=O)[C@H](CCCNC(=N)N)NC(=O)[C@H](Cc4ccc(O)cc4)NC(=O)[C@H](CCCCN)NC(=O)[C@H](CCSC)NC(=O)[C@H](CO)NC(=O)[C@H](Cc4c[nH]cn4)NC(=O)[C@H](CCCCN)NC3=O)C(=O)N[C@@H](CCCNC(=N)N)C(=O)N[C@@H](CCCCN)C(=O)N[C@@H]([C@@H](C)O)C(=O)N2)NC(=O)[C@H](CCCNC(=N)N)NC(=O)[C@H](CO)NC(=O)[C@H](CCCCN)NC(=O)[C@@H]2CCCN2C(=O)[C@H]([C@@H](C)CC)NC(=O)[C@H]([C@@H](C)O)NC(=O)[C@H](CC(=O)O)NC1=O` [[Lys33]ShK], 0.317 nM. On the same count and under the same terms, for “[1-Nal14]ShK (RSCIDTIPKSRCTXFQCKHSMKYRLSFCRKTCGTC; non-natural residues)” the value was 0.11 nM.

Another assay concerns IL-2 secretion from T cells in human whole blood. It counts as cell-based. The note with it: read-out: WB (IL-2) IC50 (nM, Avg).
In the case of `CC[C@H](C)[C@@H]1NC(=O)[C@@H](NC(=O)[C@H](CO)NC(=O)[C@@H](N)CCCNC(=N)N)CSSC[C@@H](C(=O)O)NC(=O)[C@H]([C@@H](C)O)NC(=O)CNC(=O)[C@@H]2CSSC[C@@H]3NC(=O)[C@H](CCC(N)=O)NC(=O)[C@H](Cc4ccccc4)NC(=O)[C@H](C)NC(=O)[C@H]([C@@H](C)O)NC(=O)[C@H](CSSC[C@H](NC(=O)[C@H](Cc4ccccc4)NC(=O)[C@H](CO)NC(=O)[C@H](CC(C)C)NC(=O)[C@H](CCCNC(=N)N)NC(=O)[C@H](Cc4ccc(O)cc4)NC(=O)[C@H](CCCCN)NC(=O)[C@H](CCSC)NC(=O)[C@H](CO)NC(=O)[C@H](Cc4c[nH]cn4)NC(=O)[C@H](CCCCN)NC3=O)C(=O)N[C@@H](CCCNC(=N)N)C(=O)N[C@@H](CCCCN)C(=O)N[C@@H]([C@@H](C)O)C(=O)N2)NC(=O)[C@H](CCCNC(=N)N)NC(=O)[C@H](CO)NC(=O)[C@H](Cc2cccc3ccccc23)NC(=O)[C@@H]2CCCN2C(=O)[C@H]([C@@H](C)CC)NC(=O)[C@H]([C@@H](C)O)NC(=O)[C@H](CC(=O)O)NC1=O` [[1-Nal9]ShK], the IC50 stood at 0.367 nM.

Consider `CC[C@H](C)[C@@H]1NC(=O)[C@@H](NC(=O)[C@H](CO)NC(=O)[C@@H](N)CCCNC(=N)N)CSSC[C@@H](C(=O)O)NC(=O)[C@H]([C@@H](C)O)NC(=O)[C@H](CCC(=O)O)NC(=O)[C@@H]2CSSC[C@@H]3NC(=O)[C@H](CCC(N)=O)NC(=O)[C@H](Cc4ccccc4)NC(=O)[C@H](C)NC(=O)[C@H]([C@@H](C)O)NC(=O)[C@H](CSSC[C@H](NC(=O)[C@H](Cc4ccccc4)NC(=O)[C@H](CO)NC(=O)[C@H](CC(C)C)NC(=O)[C@H](CCCNC(=N)N)NC(=O)[C@H](Cc4ccc(O)cc4)NC(=O)[C@H](CCCCN)NC(=O)[C@H](CCSC)NC(=O)[C@H](CO)NC(=O)[C@H](Cc4c[nH]cn4)NC(=O)[C@H](CCCCN)NC3=O)C(=O)N[C@@H](CCCNC(=N)N)C(=O)N[C@@H](CCCCN)C(=O)N[C@@H]([C@@H](C)O)C(=O)N2)NC(=O)[C@H](CCCNC(=N)N)NC(=O)[C@H](CO)NC(=O)[C@H](CCCCN)NC(=O)[C@@H]2CCCN2C(=O)[C@H]([C@@H](C)CC)NC(=O)[C@H]([C@@H](C)O)NC(=O)[C@H](CC(=O)O)NC1=O` [[Glu33]ShK], for which the IC50 came out at 0.054 nM.
